Source: publication PMC8594587 (Journal of medicinal chemistry, 2021)

Legend:
HIV-2 ROD = assay: Anti-HIV-2 ROD activity in MT-4 cells, MTT method; format: cell-based; conditions: Human immunodeficiency virus 2, MT4, read-out: EC50 ROD
[1] = test system: HIV-1 K103N+Y181C (RES056); assay: microbe, parasite or virus in culture; format: cell-based; conditions: Human immunodeficiency virus 1, MT4, read-out: EC50 RES056
HIV-1 F227L+V106A = format: cell-based; conditions: Human immunodeficiency virus 1, MT4, read-out: EC50 F227L+V106A
[2] = Acute toxicity test in Kunming mice; format: in vivo; conditions: Kunming, mouse, in vivo, po
Kunming mice = assay: Acute toxicity test in Kunming mice; format: in vivo; conditions: Kunming mice
in vivo = conditions: Sprague-Dawley, rat, iv, 2 mg/kg

## Cc1cc(C#N)cc(C)c1Oc1nc(NC2CCN(Cc3ccc(C(N)=O)cc3)CC2)ncc1-c1ccoc1 [Compound 14c, 4-((4-((4-(4-cyano-2,6-dimethylphenoxy)-5-(furan-3-yl)pyrimidin-2-yl)amino)piperidin-1-yl)methyl)benzamide]
HIV-2 ROD
  EC50: > 182 µM

## Cc1cc(C#N)cc(C)c1Oc1nc(NC2CCN(Cc3ccc(S(N)(=O)=O)cc3)CC2)ncc1-c1ccsc1 [Compound 12a, 4-((4-((4-(4-cyano-2,6-dimethylphenoxy)-5-(thiophen-3-yl)pyrimidin-2-yl)amino)piperidin-1-yl)methyl)benzenesulfonamide]
HIV-2 ROD
  EC50: > 6.12 µM

## Cc1cc(C#N)cc(C)c1Oc1nc(NC2CCN(Cc3ccc(S(C)(=O)=O)cc3)CC2)ncc1-c1ccco1 [Compound 13b, 4-((5-(furan-2-yl)-2-((1-(4-(methylsulfonyl)benzyl)piperidin-4-yl)amino)pyrimidin-4-yl)oxy)-3,5-dimethylbenzonitrile]
HIV-2 ROD
  EC50: > 7.46 µM

## Cc1cc(C#N)cc(C)c1Oc1nc(Nc2ccc(C#N)cc2)nc(N)c1Br [ETR, etravirine]
[1]
  EC50: 0.0522 ± 0.0242 µM
HIV-1 F227L+V106A
  EC50: 0.0269 ± 0.0023 µM

## Cc1cc(C#N)cc(C)c1Oc1nc(NC2CCN(Cc3ccc(C(N)=O)cc3)CC2)ncc1-c1ccncc1 [Compound 16c, 4-((4-((4-(4-cyano-2,6-dimethylphenoxy)-5-(pyridin-4-yl)pyrimidin-2-yl)amino)piperidin-1-yl)methyl)benzamide]
HIV-2 ROD
  EC50: > 36 µM
[2]
  LD50 at 2 weeks: > 2000 mg/kg
Kunming mice; single oral dose
  acute toxicity, tolerability: well-tolerated up to a dose of 2000 mg/kg with no acute toxicity
Kunming mice; single oral dose 2000 mg/kg
  body weight change: no abnormality of body weight changed
Kunming mice; single oral dose 2000 mg/kg, subsequent two weeks
  toxic symptoms or mortality: did not exhibit any toxic symptoms or mortality
In vivo
  Tmax: 1.98 min

## Cc1cc(C#N)cc(C)c1Oc1nc(NC2CCN(Cc3ccc(S(N)(=O)=O)cc3)CC2)ncc1-c1cccs1 [Compound 11a, 4-((4-((4-(4-cyano-2,6-dimethylphenoxy)-5-(thiophen-2-yl)pyrimidin-2-yl)amino)piperidin-1-yl)methyl)benzenesulfonamide]
HIV-2 ROD
  EC50: ≥ 33.4 µM
